Assay: mn = molality of the nth substance listed, in mol/kg
Conditions: 350 kPa, Liquid; for apparent molar heat capacity: Extra sensitive DSC

OC[C@@H](O)[C@@H](O)[C@@H](O)CO [SRS-1,2,3,4,5-pentanepentol] + O
Conditions	apparent molar heat capacity [J/K/mol]	mass density [kg/m3]
318.15 K, m1 = 0.5092	–	1013.36
318.15 K, m1 = 0.9969	–	1033.3
318.15 K, m1 = 1.998	–	1069.71
318.15 K, m1 = 3.177	–	1102.66
323.15 K, m1 = 0.0196	412.3	–
323.15 K, m1 = 0.0506	405.8	–
323.15 K, m1 = 0.1042	408.7	–
323.15 K, m1 = 0.2591	408.1	–
323.15 K, m1 = 0.5092	407.6	–
323.15 K, m1 = 0.9969	406.7	–
323.15 K, m1 = 1.998	403.3	–
323.15 K, m1 = 3.177	402.8	–
328.15 K, m1 = 0.0196	415.7	986.75
328.15 K, m1 = 0.0506	409.7	988.19
328.15 K, m1 = 0.1042	412.7	990.72
328.15 K, m1 = 0.2591	412.2	997.84
328.15 K, m1 = 0.5092	411.6	1008.63
328.15 K, m1 = 0.9969	410.7	1028.38
328.15 K, m1 = 1.998	407.3	1064.46
328.15 K, m1 = 3.177	406.7	1097.15
333.15 K, m1 = 0.0196	419.1	–
333.15 K, m1 = 0.0506	413.4	–
333.15 K, m1 = 0.1042	416.3	–
333.15 K, m1 = 0.2591	415.8	–
333.15 K, m1 = 0.5092	415.3	–
333.15 K, m1 = 0.9969	414.3	–
333.15 K, m1 = 1.998	410.9	–
333.15 K, m1 = 3.177	410.3	–
338.15 K, m1 = 0.0196	422.2	981.58
338.15 K, m1 = 0.0506	416.9	983.05
338.15 K, m1 = 0.1042	419.6	985.54
338.15 K, m1 = 0.2591	419.2	992.64
338.15 K, m1 = 0.5092	418.6	1003.33
338.15 K, m1 = 0.9969	417.6	1022.96
338.15 K, m1 = 1.998	414.3	1058.79
338.15 K, m1 = 3.177	413.6	1091.26
343.15 K, m1 = 0.0196	424.8	–
343.15 K, m1 = 0.0506	420	–
343.15 K, m1 = 0.1042	422.7	–
343.15 K, m1 = 0.2591	422.2	–
343.15 K, m1 = 0.5092	421.6	–
343.15 K, m1 = 0.9969	420.6	–
343.15 K, m1 = 1.998	417.3	–
343.15 K, m1 = 3.177	416.5	–
348.15 K, m1 = 0.0196	427.6	975.89
348.15 K, m1 = 0.0506	422.8	977.36
348.15 K, m1 = 0.1042	425.4	979.79
348.15 K, m1 = 0.2591	424.9	986.84
348.15 K, m1 = 0.5092	424.3	997.49
348.15 K, m1 = 0.9969	423.3	1017.01
348.15 K, m1 = 1.998	420.1	1052.65
348.15 K, m1 = 3.177	419.3	1084.97
353.15 K, m1 = 0.0196	429.6	–
353.15 K, m1 = 0.0506	424.8	–
353.15 K, m1 = 0.1042	427.8	–
353.15 K, m1 = 0.2591	427.3	–
353.15 K, m1 = 0.5092	426.7	–
353.15 K, m1 = 0.9969	425.7	–
353.15 K, m1 = 1.998	422.6	–
353.15 K, m1 = 3.177	421.8	–
358.15 K, m1 = 0.0196	431.8	969.65
358.15 K, m1 = 0.0506	426.7	971.12
358.15 K, m1 = 0.1042	430.1	973.52
358.15 K, m1 = 0.2591	429.5	980.54
358.15 K, m1 = 0.5092	428.9	991.18
358.15 K, m1 = 0.9969	427.9	1010.61
358.15 K, m1 = 1.998	424.9	1046.1
358.15 K, m1 = 3.177	424	1078.29
363.15 K, m1 = 0.0196	433.8	–
363.15 K, m1 = 0.0506	427.7	–
363.15 K, m1 = 0.1042	431.7	–
363.15 K, m1 = 0.2591	431.2	–
363.15 K, m1 = 0.5092	430.7	–
363.15 K, m1 = 0.9969	429.8	–
363.15 K, m1 = 1.998	426.9	–
363.15 K, m1 = 3.177	425.9	–
368.15 K, m1 = 0.0196	–	962.93
368.15 K, m1 = 0.0506	–	964.44
368.15 K, m1 = 0.1042	–	966.8
368.15 K, m1 = 0.2591	–	973.76
368.15 K, m1 = 0.5092	–	984.4
368.15 K, m1 = 0.9969	–	1003.76
368.15 K, m1 = 1.998	–	1039.13
368.15 K, m1 = 3.177	–	1071.22
